Experimental data taken from patent publication US20260028364A1, “CATIONIC CHROMENONES AND THEIR USE IN ONCOLOGY” (FLORATEK PHARMA S.A., priority 2022, published 2026).

Assays:
[1] = tested on: SK-N-SH; assay: CellTiter-Glo cell viability, SK-N-SH; assay type: cell-based; conditions: SK-N-SH cells, 72 h with compound
Experimental: (§1) Antitumor activity against a panel of cancer cell lines Antitumor activity of the compounds was assessed by using the CellTiter-Glow® Luminescent Cell Viability assay (Promega #G7572) according to the manufacturer's instructions. The compounds were tested at 5 or 6 concentrations in 1:2 dilution increments (highest concentration 10 µM) in triplicate well conditions.
(§2) Tumor cells were grown at 37° C. in a humidified atmosphere with 5% CO2 in RPMI 1640 or DMEM medium, supplemented with 10% (v/v) fetal calf serum and 50 μg/ml gentamicin for up to 20 passages, and were passaged once or twice weekly. Cells were harvested using TrypLE or PBS buffer containing 1 mM EDTA, and the percentage of viable cells is determined using a cell counter.
(§3) Cells were harvested from exponential phase cultures, counted and plated in 96 well flat-bottom microtiter plates at a cell density depending on the cell line's growth rate (4,000-20,000 cells/well depending on the cell line's growth rate) in RPMI 1640 or DMEM medium supplemented with 10% (v/v) fetal calf serum and 50 μg/ml gentamicin (140 μl/well). Cultures were incubated at 37° C. and 5% CO2 in a humidified atmosphere. After 24 h, 10 μl of test compounds or control medium are added, and left on the cells for another 72 h. Compounds were serially diluted in DMSO, transferred in cell culture medium, and added to the assay plates. The DMSO concentration was kept constant at <0.2% v/v across the assay plate. Viability of cells was quantified by the CellTiter-Glow® Luminescent Cell Viability assay (Promega #G7572). Luminescence was measured with the microplate luminometer (En Vision Perkin Elmer).
(§4) Sigmoidal concentration-response curves were fitted to the data points (test-versus-control, T/C values) obtained for each tumor model using Graph Pad prism 5.02 software. IC50 values are reported as absolute IC50 values, being the concentration of test compound at the intersection of the concentration-response curves with T/C=50%.

[2] = tested on: BxPC-3; assay: CellTiter-Glo cell viability, BxPC-3; assay type: cell-based; conditions: BxPC-3 cells, 72 h with compound
Experimental: as §1, §2, §3, §4

[3] = tested on: U87MG; assay: CellTiter-Glo cell viability, U87MG; assay type: cell-based; conditions: U87MG cells, 72 h with compound
Experimental: as §1, §2, §3, §4

[4] = tested on: HepG2; assay: CellTiter-Glo cell viability, HepG2; assay type: cell-based; conditions: HepG2 cells, 72 h with compound
Experimental: as §1, §2, §3, §4

[5] = tested on: A2058; assay: CellTiter-Glo cell viability, A2058; assay type: cell-based; conditions: A2058 cells, 72 h with compound
Experimental: as §1, §2, §3, §4

[6] = tested on: MCF-7; assay: CellTiter-Glo cell viability, MCF-7; assay type: cell-based; conditions: MCF-7 cells, 72 h with compound
Experimental: as §1, §2, §3, §4

[7] = tested on: A375; assay: CellTiter-Glo cell viability, A375; assay type: cell-based; conditions: A375 cells, 72 h with compound
Experimental: as §1, §2, §3, §4

[8] = tested on: MIA-PaCa-2; assay: CellTiter-Glo cell viability, MIA-PaCa-2; assay type: cell-based; conditions: MIA-PaCa-2 cells, 72 h with compound
Experimental: as §1, §2, §3, §4

[9] = tested on: 22Rv1; assay: CellTiter-Glo cell viability, 22Rv1; assay type: cell-based; conditions: 22Rv1 cells, 72 h with compound
Experimental: as §1, §2, §3, §4

[10] = tested on: A2058 melanoma tumor cells; assay: In vivo tumour inhibition, A2058 melanoma xenograft; parameters: species or system Balb-c/nude mouse; conditions: for T/C / TGI: Example 5, 12 mg/kg, day 20 after treatment start; for activity in inhibiting A2058 melanoma cell line in vivo: nude mouse xenograft model of melanoma
Experimental: The A2058 tumor cells were maintained in vitro in DMEM medium supplemented with 10% fetal bovine serum and 1% Anti-Anti at 37° C. in an atmosphere of 5% CO2 in air. The tumor cells were routinely subcultured twice weekly.
Each Balb-c/nude mouse was inoculated subcutaneously at the right flank with A2058 melanoma tumor cells (5×10^6+Matrigel) in 0.2 ml of PBS for tumor development. 10 animals per group were randomized when the average tumor volume reached 74 mm^3. Test compounds were prepared as DMSO stocks and diluted in the injection vehicle before administration. The treatment was administered every other day (QOD) as a peritumoral injection. Vehicle composition was 4% DMSO, 5% ethanol, 20% PEG200, 71% saline. Dosing volume for all groups: 5 mL/kg.
Tumor volume was measured twice weekly in two dimensions using a caliper, and the volume was expressed in mm^3 using the formula: V=0.5a×b^2 where a and b are the long and short diameters of the tumor, respectively. The tumor size was then used for calculations of T/C value: The T/C value (in percent) is an indication of antitumor effectiveness; T and Care the mean volumes of the treated and control groups, respectively, on a given day.
One-way ANOVA was performed to compare tumor volume among treated groups and vehicle group, all data were analyzed using GraphPad Prism 5.0. p<0.05 was considered to be statistically significant.

[11] = tested on: A-673; assay: CellTiter-Glo cell viability, A-673; assay type: cell-based; conditions: A-673 cells, 72 h with compound
Experimental: as §1, §2, §3, §4

[12] = tested on: SK-Mel-5; assay: CellTiter-Glo cell viability, SK-Mel-5; assay type: cell-based; conditions: SK-Mel-5 cells, 72 h with compound
Experimental: as §1, §2, §3, §4

[13] = tested on: HCC-15; assay: CellTiter-Glo cell viability, HCC-15; assay type: cell-based; conditions: HCC-15 cells, 72 h with compound
Experimental: as §1, §2, §3, §4

[14] = tested on: H69; assay: CellTiter-Glo cell viability, H69; assay type: cell-based; conditions: H69 cells, 72 h with compound
Experimental: as §1, §2, §3, §4

[15] = tested on: NCI-H1299; assay: CellTiter-Glo cell viability, NCI-H1299; assay type: cell-based; conditions: H1299 cells, 72 h with compound
Experimental: as §1, §2, §3, §4

[16] = tested on: MOLT-4; assay: CellTiter-Glo cell viability, MOLT-4; assay type: cell-based; conditions: Homo sapiens; MOLT-4 cells, 72 h with compound
Experimental: as §1, §2
as §3, with “After 24 h, 10 μl of test compounds or control medium are added, and left on the cells for another 72 h. Compounds were serially diluted in DMSO, transferred in cell culture medium, and added to the assay plates. The DMSO concentration was kept constant at <0.2% v/v across the assay plate.” left out, “Elmer). […]” for “Elmer).”

[17] = tested on: Raji; assay: CellTiter-Glo cell viability, Raji; assay type: cell-based; conditions: Homo sapiens; Raji cells, 72 h with compound
Experimental: as §1, §2
as §3, with “After 24 h, 10 μl of test compounds or control medium are added, and left on the cells for another 72 h. Compounds were serially diluted in DMSO, transferred in cell culture medium, and added to the assay plates. The DMSO concentration was kept constant at <0.2% v/v across the assay plate.” left out, “Elmer). […]” for “Elmer).”

[18] = tested on: Kelly; assay: CellTiter-Glo cell viability, Kelly; assay type: cell-based; conditions: Kelly cells, 72 h with compound
Experimental: as §1, §2, §3, §4

[19] = tested on: MDA-MB-468; assay: CellTiter-Glo cell viability, MDA-MB-468; assay type: cell-based; conditions: MDA-MB-468 cells, 72 h with compound
Experimental: as §1, §2
as §3, with “After 24 h, 10 μl of test compounds or control medium are added, and left on the cells for another 72 h. Compounds were serially diluted in DMSO, transferred in cell culture medium, and added to the assay plates. The DMSO concentration was kept constant at <0.2% v/v across the assay plate.” left out, “Elmer). […]” for “Elmer).”

[20] = tested on: LoVo; assay: CellTiter-Glo cell viability, LoVo; assay type: cell-based; conditions: LoVo cells, 72 h with compound
Experimental: as §1, §2
as §3, with “After 24 h, 10 μl of test compounds or control medium are added, and left on the cells for another 72 h. Compounds were serially diluted in DMSO, transferred in cell culture medium, and added to the assay plates. The DMSO concentration was kept constant at <0.2% v/v across the assay plate.” left out, “Elmer). […]” for “Elmer).”

[21] = tested on: H460; assay: CellTiter-Glo cell viability, H460; assay type: cell-based; conditions: H460 cells, 72 h with compound
Experimental: as §1, §2
as §3, with “After 24 h, 10 μl of test compounds or control medium are added, and left on the cells for another 72 h. Compounds were serially diluted in DMSO, transferred in cell culture medium, and added to the assay plates. The DMSO concentration was kept constant at <0.2% v/v across the assay plate.” left out, “Elmer). […]” for “Elmer).”

[22] = tested on: LNCaP; assay: CellTiter-Glo cell viability, LNCaP; assay type: cell-based; conditions: LNCaP cells, 72 h with compound
Experimental: as §1, §2
as §3, with “After 24 h, 10 μl of test compounds or control medium are added, and left on the cells for another 72 h. Compounds were serially diluted in DMSO, transferred in cell culture medium, and added to the assay plates. The DMSO concentration was kept constant at <0.2% v/v across the assay plate.” left out, “Elmer). […]” for “Elmer).”

| SMILES | IC50 [1] | IC50 [2] | IC50 [3] | IC50 [4] | IC50 [5] | IC50 [6] | IC50 [7] | IC50 [8] | IC50 [9] | IC50 [11] | IC50 [12] | IC50 [13] | IC50 [14] | IC50 [15] | also measured |
| --- | --- | --- | --- | --- | --- | --- | --- | --- | --- | --- | --- | --- | --- | --- | --- |
| COc1ccc2c(=O)c(-c3ccc(CCCCCC[P+](c4ccccc4)(c4ccccc4)c4ccccc4)cc3)coc2c1OC.[Cl-] [SND477] | 550 nM | 260 nM | 320 nM | 660 nM | 240 nM | 210 nM | 210 nM | 200 nM | 110 nM | 600 nM | 160 nM | 240 nM | 230 nM | 310 nM | T/C [10]: 35.6%; TGI [10]: 68.7%; activity in inhibiting A2058 melanoma cell line in vivo [10]: significant activity |
| COc1ccc2c(=O)c(-c3ccc(CCCCCCCC[P+](c4ccccc4)(c4ccccc4)c4ccccc4)cc3)coc2c1OC [SND478] | 490 nM | 250 nM | 390 nM | 680 nM | 270 nM | 220 nM | 240 nM | 190 nM | 170 nM | 650 nM | 150 nM | 220 nM | 210 nM | 260 nM | – |
| COc1ccc2c(=O)c(-c3ccc(CCCCCCCCCC[P+](c4ccccc4)(c4ccccc4)c4ccccc4)cc3)coc2c1OC.[Cl-] [SND479] | 210 nM | 220 nM | 240 nM | 440 nM | 190 nM | 170 nM | 210 nM | 110 nM | 170 nM | 440 nM | 110 nM | 190 nM | 230 nM | 200 nM | T/C [10]: 33.5%; TGI [10]: 70.0%; activity in inhibiting A2058 melanoma cell line in vivo [10]: significant activity |
| O=c1c(-c2ccc(CCCC[P+](c3ccccc3)(c3ccccc3)c3ccccc3)cc2)coc2c(O)c(O)ccc12 [SND490, (4-(4-(7,8-Dihydroxy-4-oxo-4H-chromen-3-yl)phenyl)butyl)triphenylphosphonium bromide] | – | – | – | – | – | – | – | – | – | – | – | – | – | – | IC50 [16]: 560 nM; IC50 ([11]; Homo sapiens, A673): 1950 nM |
| COc1c(O)ccc2c(=O)c(-c3ccc(CCCC[P+](c4ccccc4)(c4ccccc4)c4ccccc4)cc3)coc12 [SND530, (4-(4-(7-Hydroxy-8-methoxy-4-oxo-4H-chromen-3-yl)phenyl)butyl)triphenylphosphonium bromide] | – | – | – | – | – | – | – | – | – | – | – | – | – | – | IC50 ([3]; Homo sapiens, U-87 MG): 1900 nM; IC50 ([6]; Homo sapiens, MCF7): 1000 nM; IC50 ([7]; Homo sapiens, A-375): 1500 nM; IC50 [17]: 140 nM; IC50 ([8]; Homo sapiens): 1200 nM; IC50 ([11]; Homo sapiens, A673): 500 nM; IC50 ([12]; Homo sapiens): 1100 nM; IC50 ([13]; HCC15): 3700 nM; IC50 ([15]; Homo sapiens, NCI-H1299): 1400 nM |
| COc1ccc2c(=O)c(-c3cccc(CC[P+](c4ccccc4)(c4ccccc4)c4ccccc4)c3)coc2c1OC [SND542] | 2750 nM | 1460 nM | – | – | 690 nM | – | 760 nM | 430 nM | 800 nM | – | 870 nM | 1470 nM | 210 nM | – | IC50 [18]: 1710 nM; IC50 [19]: 510 nM; IC50 [20]: 4830 nM; IC50 [21]: 1780 nM; IC50 [22]: 690 nM |
| COc1ccc2c(=O)c(-c3cccc(C[P+](c4ccccc4)(c4ccccc4)c4ccccc4)c3)coc2c1OC [SND543] | 3870 nM | 1810 nM | – | – | 980 nM | – | 1510 nM | 630 nM | 920 nM | – | 970 nM | 1340 nM | 970 nM | – | IC50 [18]: 1440 nM; IC50 [19]: 560 nM; IC50 [21]: 2000 nM; IC50 [22]: 680 nM |
| COc1ccc2c(=O)c(-c3ccc(CC[P+](c4ccccc4)(c4ccccc4)c4ccccc4)cc3)coc2c1OC [SND550] | – | – | – | – | – | – | – | – | – | – | – | – | – | – | IC50 ([1]; Homo sapiens): 3690 nM; IC50 ([7]; Homo sapiens, A-375): 920 nM; IC50 ([8]; Homo sapiens): 4300 nM; IC50 ([9]; Homo sapiens): 750 nM; IC50 ([13]; HCC15): 1300 nM; IC50 ([14]; Homo sapiens, NCI-H69): 680 nM; IC50 ([15]; Homo sapiens, NCI-H1299): 1300 nM |
